Key:
[1] = target: Serine/threonine-protein kinase Nek10 (Homo sapiens) (UniProt Q6ZWH5); conditions: Compound concentration 1000.0 nM
[2] = target: Serine/threonine-protein kinase MRCK beta (Homo sapiens) (UniProt Q9Y5S2); conditions: Compound concentration 1000.0 nM
[3] = target: Atypical kinase COQ8A, mitochondrial (Homo sapiens) (UniProt Q8NI60); conditions: Compound concentration 1000.0 nM
[4] = target: Alpha-1D adrenergic receptor (Homo sapiens) (UniProt P25100); conditions: Compound concentration 10.0 uM
[5] = target: Hepatocyte growth factor receptor (Homo sapiens) (UniProt P08581); conditions: Compound concentration 1000.0 nM
[6] = target: Mu-type opioid receptor (Homo sapiens) (UniProt P35372); test: mu (MOP) (h) CEREP ligand profiling; conditions: filed as agonist, Compound concentration 10.0 uM
[7] = target: Serine/threonine-protein kinase tousled-like 1 (Homo sapiens) (UniProt Q9UKI8); conditions: Compound concentration 1000.0 nM
[8] = target: T1, Muscarinic acetylcholine receptor M1 (Homo sapiens) (UniProt P11229); test: M1 (h) CEREP ligand profiling; conditions: filed as antagonist, Compound concentration 10.0 uM
T1 sequence (whole entry): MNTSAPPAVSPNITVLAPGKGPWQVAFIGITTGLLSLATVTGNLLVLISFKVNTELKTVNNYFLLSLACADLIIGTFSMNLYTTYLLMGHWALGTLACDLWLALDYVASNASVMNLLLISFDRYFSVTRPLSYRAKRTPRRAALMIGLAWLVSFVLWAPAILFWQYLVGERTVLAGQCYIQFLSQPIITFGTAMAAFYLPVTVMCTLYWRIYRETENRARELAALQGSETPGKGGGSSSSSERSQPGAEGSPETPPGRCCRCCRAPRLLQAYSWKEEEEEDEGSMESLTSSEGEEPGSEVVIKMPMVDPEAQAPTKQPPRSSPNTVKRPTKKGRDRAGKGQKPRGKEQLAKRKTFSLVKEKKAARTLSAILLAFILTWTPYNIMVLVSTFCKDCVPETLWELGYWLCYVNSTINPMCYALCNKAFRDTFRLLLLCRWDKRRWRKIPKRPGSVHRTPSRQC

[9] = target: Androgen receptor (Homo sapiens) (UniProt P10275); test: AR (h) CEREP ligand profiling; conditions: filed as agonist, Compound concentration 10.0 uM
[10] = target: Serine/threonine-protein kinase ULK2 (Homo sapiens) (UniProt Q8IYT8); conditions: Compound concentration 1000.0 nM
[11] = target: Mitogen-activated protein kinase kinase kinase 12 (Homo sapiens) (UniProt Q12852); conditions: Compound concentration 1000.0 nM
[12] = target: T2, Alpha-2A adrenergic receptor (Homo sapiens) (UniProt P08913); conditions: Compound concentration 10.0 uM
T2 sequence (whole entry): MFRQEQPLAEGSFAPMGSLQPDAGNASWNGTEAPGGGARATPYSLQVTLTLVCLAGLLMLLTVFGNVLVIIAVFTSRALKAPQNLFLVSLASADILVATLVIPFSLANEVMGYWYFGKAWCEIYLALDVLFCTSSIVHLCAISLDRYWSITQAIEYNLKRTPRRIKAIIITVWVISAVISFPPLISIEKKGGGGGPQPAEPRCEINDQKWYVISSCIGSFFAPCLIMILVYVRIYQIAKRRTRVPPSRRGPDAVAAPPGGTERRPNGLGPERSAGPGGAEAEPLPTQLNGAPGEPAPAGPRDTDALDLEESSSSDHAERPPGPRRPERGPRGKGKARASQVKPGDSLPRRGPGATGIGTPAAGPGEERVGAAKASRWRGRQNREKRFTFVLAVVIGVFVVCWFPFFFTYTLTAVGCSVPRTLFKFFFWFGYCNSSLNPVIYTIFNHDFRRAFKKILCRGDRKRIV

[13] = target: Calcium-activated potassium channel (Homo sapiens) (UniProt Q92952+Q9UGI6+Q12791+O15554+Q9H2S1+A8MYU2); test: SKCa channel CEREP ligand profiling; type: protein assay; conditions: filed as antagonist; Compound concentration 10.0 uM
[14] = target: Epidermal growth factor receptor (Homo sapiens) (UniProt P00533); conditions: Compound concentration 1000.0 nM
[15] = target: Serine/threonine-protein kinase NIM1 (Homo sapiens) (UniProt Q8IY84); conditions: Compound concentration 1000.0 nM
[16] = target: Dual specificity mitogen-activated protein kinase kinase 2 (Homo sapiens) (UniProt P36507); conditions: Compound concentration 1000.0 nM
[17] = target: Macrophage colony-stimulating factor 1 receptor (Homo sapiens) (UniProt P07333); conditions: Compound concentration 1000.0 nM
[18] = target: 5-hydroxytryptamine receptor 1B (Homo sapiens) (UniProt P28222); conditions: Compound concentration 10.0 uM
[19] = target: Cytoplasmic tyrosine-protein kinase BMX (Homo sapiens) (UniProt P51813); conditions: Compound concentration 1000.0 nM
[20] = target: Serine/threonine-protein kinase WNK2 (Homo sapiens) (UniProt Q9Y3S1); conditions: Compound concentration 1000.0 nM
[21] = target: Myotonin-protein kinase (Homo sapiens) (UniProt Q09013); conditions: Compound concentration 1000.0 nM
[22] = target: Cyclin-dependent kinase 13 (Homo sapiens) (UniProt Q14004); conditions: Compound concentration 1000.0 nM
[23] = target: Sulfonylurea receptors; K-ATP channels (Homo sapiens) (UniProt Q14654+O60706+Q09428+Q15842); test: KATP channel CEREP ligand profiling; type: protein-complex assay; conditions: filed as antagonist; Compound concentration 10.0 uM
[24] = target: Sodium/potassium-transporting ATPase (Homo sapiens) (UniProt P05023+P14415+P05026+P50993+P54709+P13637+Q13733+P54710); test: ATPase (Na+/K+) CEREP ligand profiling; type: protein-complex assay; conditions: Compound concentration 10.0 uM
[25] = target: Ribosomal protein S6 kinase beta-1 (Homo sapiens) (UniProt P23443); conditions: Compound concentration 1000.0 nM
[26] = target: Serine/threonine-protein kinase ICK (Homo sapiens) (UniProt Q9UPZ9); conditions: Compound concentration 1000.0 nM
[27] = target: Tyrosine-protein kinase ABL1 (Homo sapiens) (UniProt P00519); conditions: Compound concentration 1000.0 nM
[28] = target: Mitogen-activated protein kinase 9 (Homo sapiens) (UniProt P45984); conditions: Compound concentration 1000.0 nM
Chain of Mitogen-activated protein kinase 9 (Homo sapiens) (P45984 whole entry, looked up): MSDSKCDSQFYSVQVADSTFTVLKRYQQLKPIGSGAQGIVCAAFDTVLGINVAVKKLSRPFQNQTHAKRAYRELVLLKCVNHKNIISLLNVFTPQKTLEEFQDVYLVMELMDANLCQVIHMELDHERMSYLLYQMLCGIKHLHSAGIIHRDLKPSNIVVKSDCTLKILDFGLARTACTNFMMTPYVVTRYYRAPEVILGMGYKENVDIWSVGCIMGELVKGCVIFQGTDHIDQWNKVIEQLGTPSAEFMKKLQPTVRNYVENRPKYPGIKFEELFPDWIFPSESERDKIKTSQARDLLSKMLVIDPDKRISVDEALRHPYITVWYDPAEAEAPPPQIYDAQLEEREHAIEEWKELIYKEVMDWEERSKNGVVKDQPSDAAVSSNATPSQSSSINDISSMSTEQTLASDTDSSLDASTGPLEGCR

Chain of Dual specificity mitogen-activated protein kinase kinase 2 (Homo sapiens) (P36507 whole entry): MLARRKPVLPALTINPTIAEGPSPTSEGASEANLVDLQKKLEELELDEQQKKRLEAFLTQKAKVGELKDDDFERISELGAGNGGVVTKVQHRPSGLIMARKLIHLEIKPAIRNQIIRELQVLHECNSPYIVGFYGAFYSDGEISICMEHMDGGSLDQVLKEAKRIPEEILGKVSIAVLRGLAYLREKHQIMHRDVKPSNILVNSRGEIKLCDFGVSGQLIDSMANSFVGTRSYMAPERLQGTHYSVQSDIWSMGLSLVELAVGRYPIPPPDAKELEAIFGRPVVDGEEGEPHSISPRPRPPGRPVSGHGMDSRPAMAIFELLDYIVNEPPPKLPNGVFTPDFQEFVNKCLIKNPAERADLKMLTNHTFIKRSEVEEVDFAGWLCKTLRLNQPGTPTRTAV
Chain of Serine/threonine-protein kinase MRCK beta (Homo sapiens) (Q9Y5S2 whole entry): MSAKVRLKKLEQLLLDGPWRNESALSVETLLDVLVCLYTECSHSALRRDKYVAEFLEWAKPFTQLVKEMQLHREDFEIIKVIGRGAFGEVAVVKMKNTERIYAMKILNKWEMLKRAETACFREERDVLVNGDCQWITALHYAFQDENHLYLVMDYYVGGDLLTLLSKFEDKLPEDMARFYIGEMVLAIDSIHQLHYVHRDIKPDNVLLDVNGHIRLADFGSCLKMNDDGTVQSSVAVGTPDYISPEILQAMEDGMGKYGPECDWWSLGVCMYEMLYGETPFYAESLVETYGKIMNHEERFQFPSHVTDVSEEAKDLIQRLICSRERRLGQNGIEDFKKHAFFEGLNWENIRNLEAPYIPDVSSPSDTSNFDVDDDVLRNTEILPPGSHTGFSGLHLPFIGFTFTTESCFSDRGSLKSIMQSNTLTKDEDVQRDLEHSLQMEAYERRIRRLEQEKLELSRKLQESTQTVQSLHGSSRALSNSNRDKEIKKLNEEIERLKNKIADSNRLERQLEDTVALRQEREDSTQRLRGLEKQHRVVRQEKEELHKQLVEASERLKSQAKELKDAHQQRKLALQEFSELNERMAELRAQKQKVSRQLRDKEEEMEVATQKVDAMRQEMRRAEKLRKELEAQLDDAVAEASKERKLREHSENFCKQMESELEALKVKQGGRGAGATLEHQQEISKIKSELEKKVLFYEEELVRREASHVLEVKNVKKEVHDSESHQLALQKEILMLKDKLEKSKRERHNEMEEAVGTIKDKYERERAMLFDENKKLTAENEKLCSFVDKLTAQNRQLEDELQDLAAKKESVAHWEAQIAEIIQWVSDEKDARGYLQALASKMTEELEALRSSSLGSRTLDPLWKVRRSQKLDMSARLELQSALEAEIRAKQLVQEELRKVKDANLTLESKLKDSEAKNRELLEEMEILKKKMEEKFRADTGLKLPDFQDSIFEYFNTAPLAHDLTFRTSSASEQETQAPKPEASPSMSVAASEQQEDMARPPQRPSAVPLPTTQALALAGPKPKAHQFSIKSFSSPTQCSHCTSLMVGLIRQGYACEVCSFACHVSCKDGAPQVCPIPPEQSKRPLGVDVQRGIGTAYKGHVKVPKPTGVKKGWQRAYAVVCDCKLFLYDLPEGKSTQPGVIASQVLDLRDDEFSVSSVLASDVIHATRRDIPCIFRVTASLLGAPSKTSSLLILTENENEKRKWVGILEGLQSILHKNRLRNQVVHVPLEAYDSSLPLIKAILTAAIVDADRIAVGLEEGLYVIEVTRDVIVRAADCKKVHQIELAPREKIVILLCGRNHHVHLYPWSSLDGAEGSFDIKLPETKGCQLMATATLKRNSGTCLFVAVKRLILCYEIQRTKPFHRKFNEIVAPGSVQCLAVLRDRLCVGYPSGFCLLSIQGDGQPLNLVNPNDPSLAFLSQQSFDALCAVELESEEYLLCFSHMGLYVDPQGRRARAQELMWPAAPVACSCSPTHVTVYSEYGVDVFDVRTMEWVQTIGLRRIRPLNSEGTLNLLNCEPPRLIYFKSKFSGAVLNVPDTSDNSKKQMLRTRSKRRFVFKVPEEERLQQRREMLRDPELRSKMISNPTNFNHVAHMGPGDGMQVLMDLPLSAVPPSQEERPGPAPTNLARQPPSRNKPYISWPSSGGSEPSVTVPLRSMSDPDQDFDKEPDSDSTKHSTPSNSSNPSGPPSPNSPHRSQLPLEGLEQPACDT
Chain of Alpha-1D adrenergic receptor (Homo sapiens) (P25100 whole entry): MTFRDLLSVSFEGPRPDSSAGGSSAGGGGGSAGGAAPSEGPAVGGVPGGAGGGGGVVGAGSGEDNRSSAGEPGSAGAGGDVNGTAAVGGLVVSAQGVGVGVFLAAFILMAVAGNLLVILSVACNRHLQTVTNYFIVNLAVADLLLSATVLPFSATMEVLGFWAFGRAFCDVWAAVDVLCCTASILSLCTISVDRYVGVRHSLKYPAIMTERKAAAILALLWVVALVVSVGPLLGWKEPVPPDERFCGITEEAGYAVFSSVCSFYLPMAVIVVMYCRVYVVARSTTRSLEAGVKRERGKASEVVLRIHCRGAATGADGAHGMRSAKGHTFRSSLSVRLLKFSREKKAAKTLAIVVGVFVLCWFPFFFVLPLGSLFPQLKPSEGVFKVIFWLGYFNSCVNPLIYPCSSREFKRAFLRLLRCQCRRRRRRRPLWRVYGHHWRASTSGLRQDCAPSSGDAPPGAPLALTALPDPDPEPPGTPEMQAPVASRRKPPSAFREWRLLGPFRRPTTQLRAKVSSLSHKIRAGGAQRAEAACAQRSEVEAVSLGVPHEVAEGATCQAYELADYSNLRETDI
Chain of Cyclin-dependent kinase 13 (Homo sapiens) (Q14004 whole entry, looked up): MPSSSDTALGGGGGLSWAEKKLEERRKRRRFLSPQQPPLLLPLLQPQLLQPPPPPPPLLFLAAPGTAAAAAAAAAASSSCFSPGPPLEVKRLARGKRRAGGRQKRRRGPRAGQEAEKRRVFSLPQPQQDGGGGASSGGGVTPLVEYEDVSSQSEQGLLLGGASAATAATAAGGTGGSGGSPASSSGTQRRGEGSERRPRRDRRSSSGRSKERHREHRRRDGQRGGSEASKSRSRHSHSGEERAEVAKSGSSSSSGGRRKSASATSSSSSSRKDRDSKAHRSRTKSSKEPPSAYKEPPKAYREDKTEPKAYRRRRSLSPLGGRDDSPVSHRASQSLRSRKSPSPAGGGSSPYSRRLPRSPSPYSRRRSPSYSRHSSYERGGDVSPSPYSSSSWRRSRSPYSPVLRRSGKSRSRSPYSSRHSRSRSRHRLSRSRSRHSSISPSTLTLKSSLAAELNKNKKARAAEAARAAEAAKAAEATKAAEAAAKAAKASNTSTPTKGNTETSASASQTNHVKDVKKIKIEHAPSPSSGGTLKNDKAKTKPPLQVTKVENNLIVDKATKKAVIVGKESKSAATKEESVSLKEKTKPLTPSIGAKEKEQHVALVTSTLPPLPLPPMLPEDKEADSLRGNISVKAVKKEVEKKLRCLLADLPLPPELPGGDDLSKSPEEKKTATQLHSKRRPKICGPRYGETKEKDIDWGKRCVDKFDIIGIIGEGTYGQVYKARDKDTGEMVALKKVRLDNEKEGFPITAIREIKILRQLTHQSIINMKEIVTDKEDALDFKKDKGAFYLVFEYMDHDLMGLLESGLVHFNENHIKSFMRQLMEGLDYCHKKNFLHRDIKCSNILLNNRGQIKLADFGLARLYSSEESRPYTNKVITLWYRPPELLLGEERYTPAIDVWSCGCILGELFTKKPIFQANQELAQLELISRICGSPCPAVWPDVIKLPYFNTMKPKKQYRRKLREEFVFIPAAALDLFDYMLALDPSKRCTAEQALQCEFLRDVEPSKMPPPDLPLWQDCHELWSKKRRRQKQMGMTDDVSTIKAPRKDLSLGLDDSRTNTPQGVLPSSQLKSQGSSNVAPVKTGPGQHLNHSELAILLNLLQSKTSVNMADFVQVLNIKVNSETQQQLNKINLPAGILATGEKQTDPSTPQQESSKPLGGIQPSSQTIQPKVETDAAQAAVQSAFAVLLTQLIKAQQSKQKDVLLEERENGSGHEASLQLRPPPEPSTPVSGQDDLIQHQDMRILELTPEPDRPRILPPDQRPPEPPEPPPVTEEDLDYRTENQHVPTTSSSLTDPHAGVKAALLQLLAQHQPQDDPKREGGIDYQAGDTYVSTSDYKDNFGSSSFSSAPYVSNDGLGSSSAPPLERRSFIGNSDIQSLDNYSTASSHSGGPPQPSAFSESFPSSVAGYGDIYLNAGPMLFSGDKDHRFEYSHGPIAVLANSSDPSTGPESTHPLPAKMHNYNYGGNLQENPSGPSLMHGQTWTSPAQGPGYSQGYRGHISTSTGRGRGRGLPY
Chain of 5-hydroxytryptamine receptor 1B (Homo sapiens) (P28222 whole entry): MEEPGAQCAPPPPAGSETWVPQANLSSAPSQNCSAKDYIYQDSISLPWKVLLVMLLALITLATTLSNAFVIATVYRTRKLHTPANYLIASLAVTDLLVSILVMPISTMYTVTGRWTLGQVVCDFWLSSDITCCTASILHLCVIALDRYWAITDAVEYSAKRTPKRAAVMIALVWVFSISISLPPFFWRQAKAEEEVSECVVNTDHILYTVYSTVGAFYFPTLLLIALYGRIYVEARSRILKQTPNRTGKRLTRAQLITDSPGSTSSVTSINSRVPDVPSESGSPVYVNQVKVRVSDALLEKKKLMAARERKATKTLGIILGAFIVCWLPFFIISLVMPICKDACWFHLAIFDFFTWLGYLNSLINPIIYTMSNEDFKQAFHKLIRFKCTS

CNC(=O)Nc1ccc2c(c1)[C@@]1(CC2)OC(=O)N(CC(=O)N(Cc2ccc(F)cc2)[C@@H](C)C(F)(F)F)C1=O [A-486]
inactive: residual activity [1] 91% | residual activity [2] 80% | residual activity [3] 88% | inhibition [4] 9.73% | residual activity [5] 100% | inhibition [6] 7% | residual activity [7] 100% | inhibition [8] -8% | inhibition [9] 4% | residual activity [10] 100% | residual activity [11] 100% | inhibition [12] -1.4% | inhibition [13] -7% | residual activity [14] 100% | residual activity [15] 76% | residual activity [16] 99% | residual activity [17] 98% | inhibition [18] 11.2% | residual activity [19] 99% | residual activity [20] 59% | residual activity [21] 92% | residual activity [22] 92% | inhibition [23] 19% | inhibition [24] -1% | residual activity [25] 100% | residual activity [26] 67% | residual activity [27] 84% | residual activity [28] 69%

CNC(=O)Nc1ccc2c(c1)CC[C@@]21OC(=O)N(CC(=O)N(Cc2ccc(F)cc2)[C@@H](C)C(F)(F)F)C1=O [A-485]
inactive: residual activity [1] 81% | residual activity [2] 73% | residual activity [3] 74% | inhibition [4] -1.58% | residual activity [5] 88% | inhibition [6] 12% | residual activity [7] 88% | inhibition [8] -2% | inhibition [9] -4% | residual activity [10] 82% | residual activity [11] 100% | inhibition [12] 3.72% | inhibition [13] 2% | residual activity [14] 100% | residual activity [15] 71% | residual activity [16] 96% | residual activity [17] 99% | inhibition [18] 9.82% | residual activity [19] 72% | residual activity [20] 100% | residual activity [21] 100% | residual activity [22] 96% | inhibition [23] 24% | inhibition [24] -1% | residual activity [25] 100% | residual activity [26] 72% | residual activity [27] 72% | residual activity [28] 70%

— ChEMBL document CHEMBL4507259 (2021)
